Laboratory results: ChEMBL document CHEMBL4364295, “Discovery of a First-in-Class Receptor Interacting Protein 2 (RIP2) Kinase Specific Clinical Candidate, 2-((4-(Benzo[d]thiazol-5-ylamino)-6-(tert-butylsulfonyl)quinazolin-7-yl)oxy)ethyl Dihydrogen Phosphate, for the Treatment of Inflammatory Diseases” (J Med Chem, 2019)

Tests used:
[1] = Dose normalized AUC in Sprague-Dawley rat at 200 mg/kg, po using crystalline sample during 7 day dose ranging study by LC/MS/MS analysis; type: ADME, organism-based; conditions: in vivo, 168 h
[2] = Cmax in Sprague-Dawley rat at 200 mg/kg, po using crystalline sample during 7 day dose ranging study by LC/MS/MS analysis; type: ADME, organism-based; parameters: dose 200 mg/kg, route oral; conditions: in vivo
[3] = Clearance in minipig hepatocytes; type: ADME, cell-based, Sus scrofa, Hepatocyte; conditions: pig
[4] = Unbound fraction in rat blood; type: ADME, tissue-based
[5] = Cmax in Sprague-Dawley rat at 20 mg/kg, po using crystalline sample during 7 day dose ranging study by LC/MS/MS analysis; type: ADME, organism-based; parameters: dose 20 mg/kg, route oral; conditions: in vivo
[6] = Oral bioavailability in Gottingen minipig at 1 mg/kg by LC/MS/MS analysis; type: ADME, organism-based, Sus scrofa; conditions: pig, in vivo
[7] = molecular target: Serine/threonine-protein kinase 10 (Homo sapiens) (UniProt O94804); assay: Inhibition of human STK10 at 1 uM using RLGRDKYKTLRQIRQ as substrate in presence of [gamma-33P]ATP relative to control
Chain of Serine/threonine-protein kinase 10 (Homo sapiens) (O94804 whole entry, looked up): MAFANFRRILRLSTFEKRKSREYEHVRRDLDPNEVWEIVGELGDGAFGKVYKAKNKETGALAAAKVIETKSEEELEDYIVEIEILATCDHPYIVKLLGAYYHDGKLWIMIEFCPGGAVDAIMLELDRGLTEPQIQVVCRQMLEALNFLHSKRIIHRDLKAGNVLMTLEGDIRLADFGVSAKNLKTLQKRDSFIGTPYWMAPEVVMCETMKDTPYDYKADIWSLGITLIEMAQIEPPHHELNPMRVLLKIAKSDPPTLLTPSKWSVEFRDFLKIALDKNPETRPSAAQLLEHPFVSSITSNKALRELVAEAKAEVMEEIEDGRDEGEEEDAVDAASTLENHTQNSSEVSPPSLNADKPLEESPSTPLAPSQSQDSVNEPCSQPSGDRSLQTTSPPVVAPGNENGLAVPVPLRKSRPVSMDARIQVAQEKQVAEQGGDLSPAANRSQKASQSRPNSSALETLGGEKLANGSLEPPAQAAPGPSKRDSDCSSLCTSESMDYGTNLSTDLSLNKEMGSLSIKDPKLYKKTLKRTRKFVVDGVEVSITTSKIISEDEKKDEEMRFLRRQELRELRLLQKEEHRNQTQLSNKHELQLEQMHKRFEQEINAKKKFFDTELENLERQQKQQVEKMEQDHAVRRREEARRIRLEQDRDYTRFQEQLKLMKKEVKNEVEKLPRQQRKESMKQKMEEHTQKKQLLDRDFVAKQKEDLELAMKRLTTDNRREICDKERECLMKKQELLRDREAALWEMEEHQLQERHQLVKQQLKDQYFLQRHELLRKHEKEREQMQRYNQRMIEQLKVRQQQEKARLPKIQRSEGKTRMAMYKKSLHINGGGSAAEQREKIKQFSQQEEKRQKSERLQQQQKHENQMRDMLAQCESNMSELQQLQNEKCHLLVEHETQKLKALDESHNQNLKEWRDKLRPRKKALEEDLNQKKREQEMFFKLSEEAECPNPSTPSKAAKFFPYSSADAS

[8] = molecular target: Receptor-interacting serine/threonine-protein kinase 2 (Homo sapiens, UniProt O43353); assay: Inhibition of RIPK2 in human whole blood assessed as reduction in MDP-induced TNFalpha production preincubated for 30 mins followed by MDP-stimulation and measured after 6 hrs by immunoassay; type: tissue-based
Chain of Receptor-interacting serine/threonine-protein kinase 2 (O43353 whole entry): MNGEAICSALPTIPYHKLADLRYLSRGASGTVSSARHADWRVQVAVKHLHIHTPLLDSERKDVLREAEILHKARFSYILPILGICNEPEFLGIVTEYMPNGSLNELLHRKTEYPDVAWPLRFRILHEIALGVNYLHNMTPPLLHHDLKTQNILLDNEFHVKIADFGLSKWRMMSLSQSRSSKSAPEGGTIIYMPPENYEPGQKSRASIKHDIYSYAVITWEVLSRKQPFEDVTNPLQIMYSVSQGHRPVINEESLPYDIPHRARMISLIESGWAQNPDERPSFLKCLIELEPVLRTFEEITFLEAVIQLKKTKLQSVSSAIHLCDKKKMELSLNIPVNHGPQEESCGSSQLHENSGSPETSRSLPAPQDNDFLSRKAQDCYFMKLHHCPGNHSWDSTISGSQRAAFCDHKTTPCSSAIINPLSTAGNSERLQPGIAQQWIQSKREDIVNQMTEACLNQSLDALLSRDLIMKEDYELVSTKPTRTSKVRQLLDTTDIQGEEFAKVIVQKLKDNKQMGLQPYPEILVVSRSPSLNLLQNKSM

[9] = Cmax in Gottingen minipig at 1 mg/kg, po by LC/MS/MS analysis; type: ADME, organism-based, Sus scrofa; parameters: dose 1 mg/kg, route oral; conditions: pig, in vivo
[10] = Prodrug conversion in rat hepatocytes assessed as 2-(4-(benzo[d]thiazol-5-ylamino)-6-(tert-butylsulfonyl)-1,2,3,4-tetrahydroquinazolin-7-yloxy)ethanol formation at 20 uM measured after 4 hrs; type: ADME, cell-based, Hepatocyte
[11] = Prodrug conversion in rat hepatocytes assessed as benzothiazole ring opening at 20 uM measured after 4 hrs; type: ADME, cell-based, Hepatocyte
[12] = Solubility of the compound in FaSSIF measured after 4 hrs using hemi-calcium salt form of compound; type: physicochemical
[13] = Prodrug conversion in mouse blood assessed as 2-((4-(Benzo[d]thiazol-5-ylamino)-6-(tert-butylsulfonyl)quinazolin-7-yl)oxy)ethanol formation at 0.25 to 145 mg/kg, po administered twice daily via gavage for 8 days; type: ADME, organism-based; conditions: in vivo, 192 h
[14] = Cmax in Beagle dog assessed as 2-((4-(Benzo[d]thiazol-5-ylamino)-6-(tert-butylsulfonyl)quinazolin-7-yl)oxy)ethanol level at 2 mg/kg, po by LC/MS/MS analysis; type: ADME, organism-based, Canis lupus familiaris; parameters: dose 2 mg/kg, route oral; conditions: in vivo
[15] = Prodrug conversion in minipig hepatocytes assessed as 2-(4-(benzo[d]thiazol-5-ylamino)-6-(tert-butylsulfonyl)-1,2,3,4-tetrahydroquinazolin-7-yloxy)ethanol formation at 20 uM measured after 4 hrs; type: ADME, cell-based, Sus scrofa, Hepatocyte; conditions: pig
Cytochrome P450 3A4 = Cytochrome P450 3A4 (Homo sapiens, UniProt P08684); assay: Inhibition of CYP3A4 (unknown origin); type: ADME
Chain of Cytochrome P450 3A4 (P08684 whole entry): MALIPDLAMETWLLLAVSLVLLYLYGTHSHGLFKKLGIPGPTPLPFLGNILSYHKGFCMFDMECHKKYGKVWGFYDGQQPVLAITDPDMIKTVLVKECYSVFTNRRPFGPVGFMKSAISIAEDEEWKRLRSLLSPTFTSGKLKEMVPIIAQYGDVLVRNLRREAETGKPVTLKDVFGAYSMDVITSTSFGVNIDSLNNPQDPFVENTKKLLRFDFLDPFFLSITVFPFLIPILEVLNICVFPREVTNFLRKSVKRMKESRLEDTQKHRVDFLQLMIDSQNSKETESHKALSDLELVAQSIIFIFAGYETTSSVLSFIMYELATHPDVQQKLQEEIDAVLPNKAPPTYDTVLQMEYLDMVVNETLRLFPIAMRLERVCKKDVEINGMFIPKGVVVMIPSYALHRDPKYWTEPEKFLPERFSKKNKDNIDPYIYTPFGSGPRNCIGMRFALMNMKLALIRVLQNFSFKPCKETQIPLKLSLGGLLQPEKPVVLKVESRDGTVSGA

[16] = Prodrug conversion in human hepatocytes assessed as dephosphorylation at 20 uM measured after 4 hrs; type: ADME, cell-based, Hepatocyte
[17] = Prodrug conversion in rat hepatocytes assessed as (2S,3S,4S,5R,6R)-6-(2-(4-(benzo[d]thiazol-5-ylamino)-6-(tert-butylsulfonyl)quinazolin-7-yloxy)ethoxy)-3,4,5-trihydroxytetrahydro-2H-pyran-2-carboxylic acid formation at 20 uM measured after 4 hrs; type: ADME, cell-based, Hepatocyte
[18] = Prodrug conversion in minipig hepatocytes assessed as 2-(4-(benzo[d]thiazol-5-ylamino)-7-(2-hydroxyethoxy)quinazolin-6-ylsulfonyl)-2-methylpropan-1-ol formation at 20 uM measured after 4 hrs; type: ADME, cell-based, Sus scrofa, Hepatocyte; conditions: pig
[19] = Prodrug conversion in rat hepatocytes assessed as oxidation at 20 uM measured after 4 hrs; type: ADME, cell-based, Hepatocyte

AUC/dose [1] [kg·h/L] | Cmax [2] [ng/mL] | CLH [3] [mL/min/g] | fraction unbound [4] | Cmax [5] [ng/mL] | F [6] [%] | inhibition [7] [%] | IC50 [8] [nM] | Cmax [9] [ng/mL] | Drug metabolism [10] | Drug metabolism [11] | solubility at 4 h [12] [µg/mL] | Drug metabolism [13] | Cmax [14] [ng/mL] | Drug metabolism [15] | IC50 (Cytochrome P450 3A4) [nM] | Drug metabolism [16] | Drug metabolism [17] | Drug metabolism [18] | Drug metabolism [19] | Structure (SMILES)
0.21 | 4900 | 0.55 | 0.11 | 900 | 26 | 70 to 90 | 26 | 31 | – | – | – | – | – | – | – | – | – | – | – | CC(C)(C)S(=O)(=O)c1cc2c(Nc3ccc4scnc4c3)ncnc2cc1OCCO
– | – | – | – | – | – | – | – | – | Metabolite_Detected | Metabolite_Detected | 130 | Metabolite_Detected | 840 | Metabolite_Detected | > 30000 | Metabolite_Detected | Metabolite_Detected | Metabolite_Detected | Metabolite_Detected | CC(C)(C)S(=O)(=O)c1cc2c(Nc3ccc4scnc4c3)ncnc2cc1OCCOP(=O)(O)O.[CaH2]
